Test results: patent US20160002299A1, “NON-IMMUNOSUPPRESSIVE CYCLOSPORIN DERIVATIVES AS ANTIVIRAL AGENTS” (UCL BUSINESS PLC, priority 2013, published 2016)

What was measured:
HIV-1 [1] = test: HIV-1 replication in monocyte derived macrophages (Gag p24 staining, infected cells counted); assay type: cell-based; details: primary MDM, NL4.3 Bal, MOI 0.2, 10 μM Compound 1 vs DMSO control, FIG. 2
Experimental: (§1) Primary monocyte-derived macrophages (MDM) were prepared from fresh blood from healthy volunteers. Peripheral blood mononuclear cells were isolated by Ficoll-Hypaque (Axis-Shield) density centrifugation. The isolated cells were washed with PBS and plated in RPMI (Invitrogen) supplemented with 10% heat-inactivated autologous human serum (HS) and 40 ng/ml macrophage colony stimulating factor (M-CSF) (R&D systems). The medium was then refreshed after 3 days (RPMI 1640 with 10% HS), removing any remaining non-adherent cells. After 6 days, media was replenished with
(§2) RPMI containing 5% type AB HS (Sigma-Aldrich-Aldrich). Replicate experiments were performed with cells derived from different donors.
(§3) Virus particles were produced by transient transfection of HEK293T cells. 3.5 μg of molecular clone DNA; NL4.3 Bal was transfected using Fugene 6 transfection reagent (Promega). Virus supernatants were harvested 48 hr, 72 hr and 96 hr post transfection. […] All virus preparations were quantified by reverse transcriptase (RT) enzyme linked immunosorbant assay (ELISA) (Roche). […]
(§4) Institute of Biological Standards AIDS Reagents Programme) and a secondary antibody linked to beta galactosidase. […] Cells were stained for Gag p24 at specific time points after infection and infected colonies counted. […]

IFN-β = IFN-β ELISA of supernatants of HIV-1 infected monocyte derived macrophages; assay type: cell-based, human; details: HIV-1 infected MDM, 10 μM Compound 1, supernatants, FIG. 3
Experimental: as §1, §2, §3, §4

HIV-1 [2] = test: Single round HIV-1 infection of monocyte derived macrophages; assay type: cell-based; details: MDM at MOI of 0.1-1, in the presence of Compound 1, FIG. 4
Experimental: as §1, §2, §3, §4

SMILES: C/C=C/C[C@@H](C)[C@@H](O)[C@H]1C(=O)N[C@@H](CC)C(=O)N(C)[C@H](Cc2ccc(C(=O)O)cc2)C(=O)N(C)[C@@H](CC(C)C)C(=O)N[C@@H](C(C)C)C(=O)N(C)[C@@H](CC(C)C)C(=O)N[C@@H](C)C(=O)N[C@H](C)C(=O)N(C)[C@@H](CC(C)C)C(=O)N(C)[C@@H](CC(C)C)C(=O)N(C)[C@@H](C(C)C)C(=O)N1C [Compound 1]
- HIV-1 replication (number of infected cells) (HIV-1 [1]): completely suppressed HIV-1 replication
- production of IFN-β (IFN-β): elicited the production of IFN-β
- infection lower after single round infection (HIV-1 [2]): 5-7 fold
